Measurements as given in paper PMC8373216, “Development and Preclinical Evaluation of New Inhaled Lipoglycopeptides for the Treatment of Persistent Pulmonary Methicillin-Resistant Staphylococcus aureus Infections” (Antimicrobial Agents and Chemotherapy, 2021).
In brackets after ≈: the same amount, converted by molar mass. Where two headings read alike, the source gives them in different places.

Columns and labels:
Clostridium. perfringens = experiment: microbe, parasite or virus in culture; format: cell-based
Streptococcus oralis = experiment: Expanded panel broth microdilution MIC; format: cell-based
Cutibacterium acnes = experiment: Expanded panel broth microdilution MIC; format: cell-based
Acinetobacter baumannii = experiment: Expanded panel broth microdilution MIC; format: cell-based
[1] = system: MRSA ATCC BAA 1556 (USA300); experiment: In-house broth microdilution MIC screening; format: cell-based, Staphylococcus aureus; conditions: Staphylococcus aureus, read-out: MIC Value, MRSA ATCC BAA 1556
Moraxella catarrhalis = experiment: Expanded panel broth microdilution MIC; format: cell-based
Staphylococcus hominis = experiment: Expanded panel broth microdilution MIC; format: cell-based
C. freundii = experiment: Expanded panel broth microdilution MIC; format: cell-based; conditions: Citrobacter freundii
Streptococcus pyogenes = experiment: Expanded panel broth microdilution MIC/MBC; format: cell-based
Eggerthella lenta = experiment: Expanded panel broth microdilution MIC; format: cell-based
E. coli = experiment: Expanded panel broth microdilution MIC; format: cell-based; conditions: Escherichia coli
P. vulgaris = experiment: Expanded panel broth microdilution MIC; format: cell-based; conditions: Proteus vulgaris
S. marcescens = experiment: Expanded panel broth microdilution MIC; format: cell-based; conditions: Serratia marcescens, ATCC43862
Burkholderia cepacia = experiment: Expanded panel broth microdilution MIC; format: cell-based
K. pneumoniae = experiment: Expanded panel broth microdilution MIC; format: cell-based
Haemophilus influenzae = experiment: Expanded panel broth microdilution MIC; format: cell-based
Streptococcus anginosus = experiment: Expanded panel broth microdilution MIC/MBC; format: cell-based; conditions: for MIC: Streptococcus anginosus
Streptococcus agalactiae = experiment: Expanded panel broth microdilution MIC/MBC; format: cell-based
E. cloacae = experiment: Expanded panel broth microdilution MIC; format: cell-based; conditions: Enterobacter cloacae
[2] = system: Staphylococcus epidermidis; experiment: Expanded panel broth microdilution MIC/MBC; format: cell-based; conditions: for MIC: Staphylococcus epidermidis
Pseudomonas aeruginosa = experiment: Expanded panel broth microdilution MIC; format: cell-based
MSSA ATCC 29213 = experiment: In-house broth microdilution MIC screening; format: cell-based; conditions: Staphylococcus aureus, read-out: MIC Value, MSSA ATCC 29213
Streptococcus mitis = experiment: Expanded panel broth microdilution MIC/MBC; format: cell-based; conditions: for MIC: Streptococcus mitis
[3] = system: Staphylococcus lugdunensis; experiment: Expanded panel broth microdilution MIC; format: cell-based
[4] = system: MRSA ATCC BAA 1556 (USA300) biofilm; experiment: MRSA biofilm killing, MBEC assay system, TSB with 1% human plasma
H. parainfluenzae = experiment: Expanded panel broth microdilution MIC; format: cell-based; conditions: Haemophilus parainfluenzae
S. aureus = experiment: Expanded panel broth microdilution MIC/MBC; conditions: for MIC: Staphylococcus aureus

CN[C@H](CC(C)C)C(=O)N[C@H]1C(=O)N[C@@H](CC(N)=O)C(=O)N[C@H]2C(=O)N[C@H]3C(=O)N[C@H](C(=O)N[C@H](C(=O)O)c4cc(O)cc(O)c4-c4cc3ccc4O)[C@H](O)c3ccc(c(Cl)c3)Oc3cc2cc(c3O[C@@H]2O[C@H](CO)[C@@H](O)[C@H](O)[C@H]2O[C@H]2C[C@](C)(N)[C@H](O)[C@H](C)O2)Oc2ccc(cc2Cl)[C@H]1O [Vancomycin, vancomycin]
MIC (Clostridium. perfringens): 0.25 µg/mL (≈ 0.173 µM)
MIC (Clostridium. perfringens; ATCC13124, read-out: MIC): 0.25 µg/mL (≈ 0.173 µM)
MIC (Streptococcus oralis; S. oralis MGS, 1 isolate): 0.5 µg/mL (≈ 0.345 µM)
MIC (Streptococcus oralis; Streptococcus oralis): 0.5 µg/mL (≈ 0.345 µM)
MIC (Cutibacterium acnes; ATCC6919): 0.25 µg/mL (≈ 0.173 µM)
MIC (Cutibacterium acnes; ATCC11827): 0.12 µg/mL (≈ 0.0828 µM)
MIC (Cutibacterium acnes; read-out: MIC (median)): 0.19 µg/mL (≈ 0.131 µM)
MIC (Acinetobacter baumannii; A. baumannii MMX 6974, colistinR): > 64 µg/mL
MIC (Acinetobacter baumannii; Acinetobacter baumannii): > 64 µg/mL
MIC (Acinetobacter baumannii; Acinetobacter baumannii, NCTC13304): > 64 µg/mL
MIC [1]: 1 µg/mL (≈ 0.69 µM)
MIC (Moraxella catarrhalis): 16 µg/mL (≈ 11 µM)
MIC (Moraxella catarrhalis; ATCC8176): 32 µg/mL (≈ 22.1 µM)
MIC (Moraxella catarrhalis; ATCC8193): 64 µg/mL (≈ 44.2 µM)
MIC (Staphylococcus hominis): 0.5 µg/mL (≈ 0.345 µM)
MIC (Staphylococcus hominis; ATCC27844): 0.5 µg/mL (≈ 0.345 µM)
MIC (C. freundii): > 64 µg/mL
MIC (Streptococcus pyogenes; S. pyogenes MMX 946, ermR): 0.25 µg/mL (≈ 0.173 µM)
MIC:MBC (Streptococcus pyogenes; S. pyogenes ermR): 1
MIC (Streptococcus pyogenes; Streptococcus pyogenes): 0.25 µg/mL (≈ 0.173 µM)
MIC (Streptococcus pyogenes; Streptococcus pyogenes, ATCC19615): 0.25 µg/mL (≈ 0.173 µM)
MIC (Streptococcus pyogenes; Streptococcus pyogenes, read-out: MIC (median)): 0.25 µg/mL (≈ 0.173 µM)
MIC (Eggerthella lenta): 0.5 µg/mL (≈ 0.345 µM)
MIC (Eggerthella lenta; ATCC43055): 0.5 µg/mL (≈ 0.345 µM)
MIC (E. coli): > 64 µg/mL
MIC (E. coli; ATCC25922): > 64 µg/mL
MIC (P. vulgaris): > 64 µg/mL
MIC (S. marcescens): > 64 µg/mL
MIC (Burkholderia cepacia): > 64 µg/mL
MIC (K. pneumoniae; K. pneumoniae MMX 4679, KPC-2): > 64 µg/mL
MIC (K. pneumoniae; Klebsiella pneumoniae): > 64 µg/mL
MIC (Haemophilus influenzae): 64 µg/mL (≈ 44.2 µM)
MIC (Haemophilus influenzae; ATCC49247): > 64 µg/mL
MIC:MBC (Streptococcus anginosus; S. anginosus AGS): >8
MIC (Streptococcus anginosus): 0.5 µg/mL (≈ 0.345 µM)
MIC (Streptococcus anginosus; ATCC33397): 0.5 µg/mL (≈ 0.345 µM)
MIC (Streptococcus agalactiae; S. agalactiae MMX 4115, ermR): 0.25 µg/mL (≈ 0.173 µM)
MIC (Streptococcus agalactiae; S. agalactiae ermR, 1 isolate): 0.25 µg/mL (≈ 0.173 µM)
MIC:MBC (Streptococcus agalactiae; S. agalactiae, MBC on one organism): 4
MIC (Streptococcus agalactiae; Streptococcus agalactiae): 0.25 µg/mL (≈ 0.173 µM)
MIC (Streptococcus agalactiae; Streptococcus agalactiae, ATCC13813): 0.25 µg/mL (≈ 0.173 µM)
MIC (Streptococcus agalactiae; Streptococcus agalactiae, read-out: MIC (median)): 0.25 µg/mL (≈ 0.173 µM)
MIC (E. cloacae; ATCC49141): > 64 µg/mL
MIC (E. cloacae; ATCCBAA1143): > 64 µg/mL
MIC:MBC ([2]; S. epidermidis MRSE, MBC on one organism): 1
MIC ([2]; ATCC49134, S. epidermidis ATCC 49134, MSSE): 0.5 µg/mL (≈ 0.345 µM)
MIC ([2]; MRSE, S. epidermidis MMX 762, MRSE): 1 µg/mL (≈ 0.69 µM)
MIC ([2]; MRSE, S. epidermidis MMX 5145, MRSE): 1 µg/mL (≈ 0.69 µM)
MIC ([2]; MRSE, read-out: MIC (median), S. epidermidis MRSE, 2 isolates): 1 µg/mL (≈ 0.69 µM)
MIC ([2]; S. epidermidis MSSE, 1 isolate): 0.5 µg/mL (≈ 0.345 µM)
MIC (Pseudomonas aeruginosa): > 64 µg/mL
MIC (Pseudomonas aeruginosa; ATCC27853): > 64 µg/mL
MIC (MSSA ATCC 29213): 1 µg/mL (≈ 0.69 µM)
MIC:MBC (Streptococcus mitis; S. mitis MGS, MBC on one organism): 1
MIC (Streptococcus mitis): 0.25 µg/mL (≈ 0.173 µM)
MIC (Streptococcus mitis; ATCC49456): 0.25 µg/mL (≈ 0.173 µM)
MIC (Streptococcus mitis; read-out: MIC (median)): 0.25 µg/mL (≈ 0.173 µM)
MIC ([3]; S. lugdunensis, 1 isolate): 0.25 µg/mL (≈ 0.173 µM)
MIC ([3]; Staphylococcus lugdunensis): 0.25 µg/mL (≈ 0.173 µM)
Maximum reduction in MRSA biofilm titer relative to control ([4]; MBEC, 512 μg/ml): 1.1 log10 CFU/peg
Concentrations with statistically significant reduction versus control biofilm ([4]; MBEC, two-way ANOVA, Bonferroni): ≥ 16 µg/mL
Reduction in MRSA biofilm titer ([4]; plasma-supplemented MBEC assay, dose not stated): ~1 log10 CFU/peg
MIC (H. parainfluenzae): 64 µg/mL (≈ 44.2 µM)
MIC:MBC (S. aureus; S. aureus MRSA, MBC median of n = 5): 1
MIC:MBC (S. aureus; S. aureus MSSA, MBC on one organism): 1
MIC:MBC (S. aureus; S. aureus VISA, MBC median of n = 2): 4
MIC (median) (S. aureus; S. aureus VRSA, 12 isolates (JMI Laboratories)): >64 µg/mL
MIC:MBC (S. aureus; S. aureus hVISA, MBC on one organism): 1
MIC (S. aureus; ATCC13709 / MSSA, S. aureus ATCC 13709, MSSA): 1 µg/mL (≈ 0.69 µM)
MIC (S. aureus; ATCC29213 / MSSA, S. aureus ATCC 29213, MSSA): 1 µg/mL (≈ 0.69 µM)
MIC (S. aureus; ATCC43300 / MRSA, S. aureus ATCC 43300, MRSA): 1 µg/mL (≈ 0.69 µM)
MIC (S. aureus; ATCCBAA1556|MRSA|USA300, S. aureus ATCC BAA-1556, MRSA, USA300 (expanded panel)): 0.5 µg/mL (≈ 0.345 µM)
MIC (S. aureus; ATCCBAA1756|MRSA|NRS384|USA300, S. aureus NRS 384, ATCC BAA-1756, MRSA, USA300): 0.5 µg/mL (≈ 0.345 µM)
MIC (S. aureus; MRSA / NRS123 / USA400, S. aureus NRS123, MRSA, USA400): 0.5 µg/mL (≈ 0.345 µM)
MIC (S. aureus; MRSA / NRS725 / USA300, S. aureus NRS725, MRSA, USA300): 0.5 µg/mL (≈ 0.345 µM)
MIC (S. aureus; MRSA / USA300, S. aureus MMX 3982, MRSA, USA300): 0.5 µg/mL (≈ 0.345 µM)
MIC (S. aureus; MRSA, S. aureus MMX 7899, MRSA): 0.5 µg/mL (≈ 0.345 µM)
MIC (S. aureus; MRSA, S. aureus MMX 7900, MRSA): 0.5 µg/mL (≈ 0.345 µM)
MIC (S. aureus; MRSA, S. aureus MMX 7901, MRSA): 0.5 µg/mL (≈ 0.345 µM)
MIC (S. aureus; MRSA, S. aureus MMX 7902, MRSA): 0.5 µg/mL (≈ 0.345 µM)
MIC (S. aureus; MRSA, S. aureus MMX 7903, MRSA): 0.5 µg/mL (≈ 0.345 µM)
MIC (S. aureus; MRSA, read-out: MIC (median), S. aureus MRSA, 12 isolates): 0.5 µg/mL (≈ 0.345 µM)
MIC (S. aureus; MSSA, S. aureus MMX 7907, MSSA): 0.5 µg/mL (≈ 0.345 µM)
MIC (S. aureus; MSSA, S. aureus MMX 7908, MSSA): 0.5 µg/mL (≈ 0.345 µM)
MIC (S. aureus; MSSA, read-out: MIC (median), S. aureus MSSA, 4 isolates): 0.75 µg/mL (≈ 0.518 µM)
MIC (S. aureus; NRS1 / VISA, S. aureus NRS1, VISA, Mu50): 4 µg/mL (≈ 2.76 µM)
MIC (S. aureus; NRS2, S. aureus NRS2, hVISA;Mu3): 1 µg/mL (≈ 0.69 µM)
MIC (S. aureus; NRS4 / VISA, S. aureus NRS4, VISA): 4 µg/mL (≈ 2.76 µM)
MIC (S. aureus; NRS13 / VISA, S. aureus NRS13, VISA): 2 µg/mL (≈ 1.38 µM)
MIC (S. aureus; NRS22 / VISA, S. aureus NRS22, VISA): 4 µg/mL (≈ 2.76 µM)
MIC (S. aureus; NRS23, S. aureus NRS23, hVISA): 2 µg/mL (≈ 1.38 µM)
MIC (S. aureus; NRS52 / VISA, S. aureus NRS52, VISA): 1 µg/mL (≈ 0.69 µM)
MIC (S. aureus; VISA, read-out: MIC (median), S. aureus VISA, 5 isolates): 4 µg/mL (≈ 2.76 µM)
MIC (S. aureus; VRSA, read-out: MIC (median), S. aureus VRSA, 12 isolates (JMI Laboratories)): > 64 µg/mL
MIC (S. aureus; read-out: MIC (median), S. aureus hVISA, 2 isolates): 1.5 µg/mL (≈ 1.04 µM)
